Source: US20240050403A1, “THERAPY OF POST-OPERATIVE EMESIS WITH AMISULPRIDE” (Acacia Pharma Limited, priority 2016, published 2024)
Values joined by “and” are separate entries in the source; they are usually repeats but may differ in a detail not shown here. Equal entries are not always repeated.

Columns and labels:
Type in all cases: in vivo, human
adult surgical patients [1] = experiment: Phase II clinical trial, multi-centre, double-blind, randomised, placebo-controlled, PONV incidence
Method: In a multi-centre, double-blind, randomised, placebo-controlled Phase II clinical trial in adult surgical patients (conducted by the applicant), administration of amisulpride at 5 mg was associated with a PONV incidence of 40%, compared to 69% with placebo (p<0.01).

adult surgical patients [2] = experiment: Two Phase III clinical trials, multi-centre, double-blind, randomised, placebo-controlled, PONV incidence
Method: In two multi-centre, double-blind, randomised, placebo-controlled Phase III clinical trials involving 626 evaluable, adult surgical patients (again conducted by the applicant), administration of amisulpride at 5 mg was associated with a PONV incidence of 48%, compared to 59% with placebo (p<0.01).

[3] = tested on: adult, surgical patients at high risk of PONV; experiment: Study 1: Phase III study of amisulpride as combination prophylaxis against PONV in high-risk patients
Method: A randomised, double-blind, placebo-controlled Phase Ill study of amisulpride as combination prophylaxis against post-operative nausea and vomiting in high-risk patients was conducted. The primary aim of the study was to assess the efficacy of amisulpride at 5 mg in the prevention of post-operative nausea and vomiting (PONV) in adult, surgical patients at high risk of PONV. The amisulpride was administered in combination with a standard anti-emetic.
The subjects of the study were 1204 randomised adult patients ([…]) at high risk of PONV who were undergoing elective ambulatory (day-case) or in-patient surgery under general inhalational anaesthesia for an expected duration of at least one hour from induction of anaesthesia to extubation. Of the 1204 randomised patients, 1147 were dosed and eligible.
High risk of PONV was defined as having at least three of the following risk factors: • Past history of PONV and/or motion sickness • Habitual non-smoking status • Female • Expected use of post-operative opioid analgesia
5 mg amisulpride was administered as a single, slow, intravenous (IV) push over one minute at the time of induction of anaesthesia; given in combination with a standard anti-emetic. Examples of standard anti-emetics used were ondansetron, granisetron and dexamethasone.
The two arms of the study were as follows: • Arm 1: amisulpride IV at 5 mg in combination with a standard anti-emetic which is not a dopamine D2-antagonist (e.g. ondansetron IV at 4 mg, granisetron IV at 1 mg, or dexamethasone IV at 4 mg); • Arm 2 (control): amisulpride IV placebo in combination with a standard anti-emetic, as defined above • The primary efficacy variable was the absence or presence of PONV during the 24-hour post-operative period, where PONV was defined as the occurrence of one or more emetic episodes (vomiting and/or retching) or the receipt of one or more doses of rescue anti-emetic medication. Absence of PONV by this definition was termed “Complete Response” (CR). A number of secondary variables were evaluated including the occurrence of emesis (vomiting and/or retching).
A comparison of the incidence of CR in the 0-24-hour period after surgery between the amisulpride group and the placebo group using Pearson's x2 test with Yates's continuity correction at a one-sided significance level of 2.5%. The primary efficacy analysis population was the modified intent-to-treat (mITT) population.
Secondary efficacy variables assessed by incidence (e.g., emesis) were compared between the groups using Pearson's x2 test.

Structure (SMILES): CCN1CCCC1CNC(=O)c1cc(S(=O)(=O)CC)c(N)cc1OC (racemic) [Amisulpride, amisulpride]
- PONV incidence (adult surgical patients [1]; amisulpride at 5 mg, placebo 69% (p<0.01)): 40%
- adverse events, laboratory or ECG abnormalities versus placebo (adult surgical patients [1]; amisulpride versus placebo): no difference in the nature, incidence or severity of adverse events, or of laboratory or ECG abnormalities
- PONV incidence (adult surgical patients [2]; amisulpride at 5 mg, 626 evaluable patients, placebo 59% (p<0.01)): 48%
- safety profile versus placebo (adult surgical patients [2]; amisulpride versus placebo): no significant difference between the safety profiles
- transient increases in serum prolactin levels (adult surgical patients [2]; amisulpride versus placebo): more common with amisulpride
- Calculated RRR (relative risk reduction) of post-operative emesis ([3]; 5 mg IV plus a standard anti-emetic versus placebo plus standard anti-emetic): 30.94%
- Calculated RRR (relative risk reduction) of PONV ([3]; 5 mg IV plus a standard anti-emetic versus placebo plus standard anti-emetic, 24 hour period): 20.8% and 20.76%
- Calculated RRR (relative risk reduction) of post-operative emesis ([3]; 5 mg IV plus a standard anti-emetic versus placebo plus standard anti-emetic, listed as amisulpride): 31%
- Difference in PONV rate (improvement in CR rate) versus placebo plus standard anti-emetic ([3]; 5 mg IV plus a standard anti-emetic, 24 hour period, mITT, p<0.001): 11.08%
- Number of patients with PONV ([3]; 5 mg IV plus a standard anti-emetic, 24 hour period, of 572 patients): 242
- Number of patients with CR (complete response) ([3]; 5 mg IV plus a standard anti-emetic, 24 hour period, of 572 patients (mITT)): 330
- % patients with PONV ([3]; 5 mg IV plus a standard anti-emetic, 24 hour period, placebo plus standard anti-emetic 53.39): 42.31%
- Number of patients with post-operative emesis (vomiting and/or retching) ([3]; 5 mg IV plus a standard anti-emetic, of 572 patients): 79
- Difference in post-operative emesis rate versus placebo plus standard anti-emetic ([3]; 5 mg IV plus a standard anti-emetic, p=0.003): 6.19%
- % patients with post-operative emesis (vomiting and/or retching) ([3]; 5 mg IV plus a standard anti-emetic, placebo plus standard anti-emetic 20.00): 13.81%
